{"source": "patent US20190298735A1", "about": "“TREATMENT AND PREVENTION OF CLOSTRIDIUM DIFFICILE COLITIS USING MISOPROSTOL” (Vanderbilt University, priority 2016, published 2019)", "key": {"[1]": {"conditions": "human; cited from earlier work"}, "NAP1/BI/027 strain M7404": {"test_system": "NAP1/BI/027 strain M7404", "assay": "Misoprostol in acute CDI mouse model (survival, FITC-dextran intestinal permeability, diarrhea)", "format": "in vivo, mice", "conditions": "for CDI severity: mice, M7404 spores, daily misoprostol IP vs vehicle"}, "esophageal ulcer": {"test_system": "esophageal ulcer", "conditions": "rats, cited from earlier work"}, "C. difficile strain 630": {"test_system": "C. difficile strain 630", "assay": "Colonization levels of C. difficile in the cecum of infected mice", "format": "in vivo", "conditions": "strain 630, 96 hr post infection, misoprostol vs vehicle", "method": "FIG. 5. […] (A) Mice were infected by gavage with 10^6 spores of the NAP1/BI/027 strain […] and treated daily with the PGE analogue misoprostol (or vehicle) by intraperitoneal (IP) injection. n=5 per group. (B) To assess intestinal permeability mice were infected with […] of […] and given misoprostol 20 μg/mouse by IP injection 30 min before infection, 24 hr post-infection and at the time of FITC-dextran treatment. 2 d post infection mice were gavaged with FITC-dextran or vehicle control, then euthanized 4 hr later and concentrations of FITC-dextran in plasma were determined (*P<0.05). (C) Colonization levels of C. difficile strain 630 in the cecum for infected mice exposed to misoprostol or vehicle 96 hr post infection (*P<0.05)."}, "PGE2 EP receptors": {"test_system": "PGE2 EP receptors", "conditions": "cited from earlier work"}, "strain M7404": {"test_system": "strain M7404", "assay": "Misoprostol in indomethacin-exposed CDI mice", "format": "in vivo, Female C57BL/6 mice"}, "[2]": {"test_system": "human esophageal epithelial (HET-1A) cells", "conditions": "cited from earlier work"}, "[3]": {"target": "T1, prostaglandin E2 receptor 4 (EP4) receptor (Mus musculus, UniProt P32240)", "T1 construct": "endogenous in cells; host or cells: mouse, in vivo (colon tissue); result quoted from Watanabe et al. 2015", "T1 sequence (P32240 whole entry)": "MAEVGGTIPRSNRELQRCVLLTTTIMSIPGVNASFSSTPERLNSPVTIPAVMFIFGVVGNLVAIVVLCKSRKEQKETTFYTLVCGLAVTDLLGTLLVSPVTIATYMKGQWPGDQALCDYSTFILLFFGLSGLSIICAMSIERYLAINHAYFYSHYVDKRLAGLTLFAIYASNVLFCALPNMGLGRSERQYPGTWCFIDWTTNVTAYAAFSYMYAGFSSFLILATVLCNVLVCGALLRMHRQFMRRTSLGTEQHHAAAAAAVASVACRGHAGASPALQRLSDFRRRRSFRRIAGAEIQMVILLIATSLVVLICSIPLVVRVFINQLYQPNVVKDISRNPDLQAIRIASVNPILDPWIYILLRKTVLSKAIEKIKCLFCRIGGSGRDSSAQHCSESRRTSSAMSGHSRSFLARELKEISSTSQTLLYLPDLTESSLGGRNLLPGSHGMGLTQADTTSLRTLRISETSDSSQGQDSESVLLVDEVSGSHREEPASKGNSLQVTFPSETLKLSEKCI", "conditions": "oral administration, mouse model; cited from earlier work"}, "[4]": {"target": "T1, prostaglandin E2 receptor 4 (EP4) receptor", "conditions": "another mouse model, oral administration; cited from earlier work"}, "[5]": {"conditions": "mice; cited from earlier work"}, "[6]": {"test_system": "NAP1 C. difficile strain M7404", "format": "in vivo, C57BL/6 mice", "conditions": "mice, NSAID given before or after infection, clinical NAP1/027 isolate; indomethacin 10 mg/kg gavage, ibuprofen 5 mg/kg in drinking water"}, "C. difficile [7]": {"test_system": "C. difficile", "assay": "Tissue PGE2 (ELISA) and histological colitis score in C. difficile infected mice treated with indomethacin", "format": "in vivo", "conditions": "for tissue damage and acute inflammation (colitis): blinded histological score: edema, neutrophilic inflammation, epithelial damage; for tissue PGE2 levels: indomethacin gavage once daily until day +4, ELISA", "method": "FIG. 3. […] (A) Mice were infected with C. difficile and treated with indomethacin by gavage once daily starting on the day of infection until mice were euthanized on day +4. Tissue PGE2 concentrations were measured by ELISA. n=5 mice per group. (B) Histological assessment of colitis was performed in a blinded fashion. The score incorporates edema, neutrophilic inflammation, and epithelial damage. (C and D) Tissue cytokine and chemokine concentrations were measured by ELISA. n=5 mice per group. *P<0.05."}, "C. difficile [8]": {"test_system": "C. difficile", "conditions": "C. difficile-infected mice, cited from earlier work"}}, "note": "Entries after “also recorded” stand apart in the source; their conditions may differ.", "data": [{"compound": "CCCC[C@](C)(O)C/C=C/[C@H]1[C@H](O)CC(=O)[C@@H]1CCCCCCC(=O)OC", "note": "(racemic) [misoprostol, (11a, 13E)-(±)-11,16-dihydroxy-16-methyl-9-oxoprost-13-en-1-oic acid methyl ester]", "values": [{"measurement": "protection of colonic mucosa against mucosal insults", "setting": "[1]", "result": "potently protects human colonic mucosa"}, {"measurement": "diarrhea", "setting": "NAP1/BI/027 strain M7404; infected mice, misoprostol vs vehicle/placebo", "result": "reduced diarrhea; also recorded: fared significantly better"}, {"measurement": "CDI severity", "setting": "NAP1/BI/027 strain M7404", "result": "reduced CDI severity"}, {"measurement": "CDI severity", "setting": "NAP1/BI/027 strain M7404; listed as Misoprostol", "result": "reduces CDI severity"}, {"measurement": "death / survival", "setting": "NAP1/BI/027 strain M7404; mouse, in vivo, ip", "result": "prevented death; also recorded: fared significantly better"}, {"measurement": "CREB phosphorylation, VEGF expression and angiogenesis", "setting": "esophageal ulcer; esophageal ulcer", "result": "enhanced phosphorylation of CREB, stimulated VEGF expression and angiogenesis"}, {"measurement": "esophageal ulcer healing", "setting": "esophageal ulcer", "result": "accelerated esophageal ulcer healing"}, {"measurement": "C. difficile colonization levels", "setting": "C. difficile strain 630", "result": "reduced C. difficile colonization levels"}, {"measurement": "binding to PGE2 EP receptors", "setting": "PGE2 EP receptors", "result": "binds all 4 of the PGE2 EP receptors"}, {"measurement": "CDI in indomethacin-exposed mice", "setting": "strain M7404; INDO 10 mg/kg days −2 and −1, 1×10^4 spores M7404, 20 mg misoprostol i.p. daily", "result": "improves CDI"}, {"measurement": "survival, Log-rank (Mantel-Cox) test", "setting": "strain M7404; mouse, in vivo, ip", "result": "not statistically significant"}, {"measurement": "VEGF expression", "setting": "[2]", "result": "stimulated VEGF expression"}, {"measurement": "increase of intracellular cAMP levels", "setting": "[2]", "result": 163, "unit": "fold"}, {"measurement": "phosphorylation of CREB", "setting": "[2]", "result": "induced phosphorylation of CREB"}]}, {"compound": "Cc1cccc([C@@H](C)[C@H](O)/C=C/[C@@H]2[C@@H]3[C@H](C[C@H]2O)O/C(=C\\CCCc2nn[nH]n2)C3(F)F)c1", "note": "[KAG-308]", "values": [{"measurement": "onset of dextran sulfate sodium-induced colitis and mucosal healing", "setting": "[3]", "result": "suppressed onset of dextran sulfate sodium-induced colitis and promoted mucosal healing"}, {"measurement": "colorectal carcinogenesis", "setting": "[4]", "result": "prevented colorectal carcinogenesis"}]}, {"compound": "CCCCC[C@H](O)/C=C/[C@H]1[C@H](O)CC(=O)[C@@H]1C/C=C\\CCCC(=O)O", "note": "[PGE2, Prostaglandin E2]", "values": [{"measurement": "colitis induced by DSS", "setting": "[5]", "result": "significantly improved colitis"}]}, {"compound": "Nc1ncnc2c1ncn2[C@@H]1O[C@@H]2COP(O)(=S)O[C@H]2[C@H]1O", "note": "(some centres unmarked) [Rp-cAMP]", "values": [{"measurement": "action on the effects of misoprostol (cAMP, CREB phosphorylation, VEGF expression)", "setting": "[2]", "result": "blocked"}]}, {"compound": "Nc1ncnc2c1ncn2[C@@H]1O[C@@H]2COP(O)(=S)O[C@H]2[C@H]1O", "note": "(some centres unmarked) [Sp-cAMP]", "values": [{"measurement": "action on the effects of misoprostol (cAMP, CREB phosphorylation, VEGF expression)", "setting": "[2]", "result": "mimicked"}]}, {"compound": "COc1ccc2c(c1)c(CC(=O)O)c(C)n2C(=O)c1ccc(Cl)cc1", "note": "[indomethacin]", "values": [{"measurement": "mortality in CDI", "setting": "[6]", "result": "higher mortality"}, {"measurement": "tissue damage and acute inflammation (colitis)", "setting": "C. difficile [7]", "result": "induced more tissue damage and acute inflammation"}, {"measurement": "tissue damage and acute inflammation (colitis)", "setting": "C. difficile [7]; listed as Indomethacin", "result": "worsens colitis"}, {"measurement": "tissue PGE2 levels", "setting": "C. difficile [7]", "result": "suppressed tissue PGE2 levels"}, {"measurement": "tissue PGE2 levels", "setting": "C. difficile [7]; listed as Indomethacin", "result": "inhibits PGE2 production"}]}, {"compound": "CN[C@H](CC(C)C)C(=O)N[C@H]1C(=O)N[C@@H](CC(N)=O)C(=O)N[C@H]2C(=O)N[C@H]3C(=O)N[C@H](C(=O)N[C@H](C(=O)O)c4cc(O)cc(O)c4-c4cc3ccc4O)[C@H](O)c3ccc(c(Cl)c3)Oc3cc2cc(c3O[C@@H]2O[C@H](CO)[C@@H](O)[C@H](O)[C@H]2O[C@H]2C[C@](C)(N)[C@H](O)[C@H](C)O2)Oc2ccc(cc2Cl)[C@H]1O", "note": "[vancomycin]", "values": [{"measurement": "relapse of colitis after treatment", "setting": "C. difficile [8]; with increased colonization levels and toxin production", "result": "gradual return of colitis by day 16"}, {"measurement": "resolution of colitis", "setting": "C. difficile [8]", "result": "accelerates resolution of colitis"}]}]}
